This is an account of results in patent US20240201169A1, “METHODS OF THREE-DIMENSIONAL TUMOR SPHEROID MICROARRAY FOR HIGH-THROUGHPUT, HIGH-CONTENT IMMUNE CELL-MEDIATED CYTOTOXICITY” (RENSSELAER POLYTECHNIC INSTITUTE, priority 2021, published 2024).

The test system of one data set is MiaPaCa-2 spheroids. The settings on record: antibody 2.5 μg/mL with NK92-CD16 (5:1) and paclitaxel dose range, 24 h. The method, then: High-content imaging of 3D tumor spheroid micropillar array for effector cell-mediated cytotoxicity including NK ADCC/drug combination. Uniform-sized 3D spheroids in the 330-micropillar array were used to perform high-throughput ADCC on three different cancer cell lines; MiaPaCa-2, MCF7 and MDA-MB-231, the latter a triple negative breast cancer cell line, in the presence and absence of two chemotherapeutic drugs, doxorubicin and paclitaxel. The ADCC screen was performed by spotting 250 nL onto polydopamine-coated micropillars including 2500 target cancer cells per spot. The cells were cultured for 3 days and then treated with NK92-CD16 cells. […] As a control, one block of spots was reserved for exposure of target cells with both antibody and the drugs but without NK92-CD16 cells. The micropillar/microwell sandwich platform was incubated for 24 h upside-down to allow for target cell killing on culture day 3. […]
(§1) Similarly, for the dose response experiments with paclitaxel, where the E:T ratio was fixed at 5:1, 25 different conditions including a dead cell control were evaluated, as shown in Table 2.
(§2) Unconjugated anti-HER2 antibody was used for experiments on 330 micropillar/microwell chips. […] The chips were subsequently washed in DPBS and imaged using an ASFA™ Cell Scanner (MBD Korea Co., South Korea) and quantitatively analyzed using cell analyzer software within the imaging system. […]

For a further data set, the system named is MDA-MB-231 spheroids. The data set can be described thus: 3D tumor spheroid 330-micropillar/microwell cytotoxicity (NK ADCC/drug combination, paclitaxel dose response). The format is cell-based. The settings on record: for target cell cytotoxicity of combination: combination of NK92-CD16 at E:T 10:1, Trastuzumab and drug (3.5 nM doxorubicin, p<0.01; 7.0 nM paclitaxel, p<0.05). The method, then:
(§3) High-content imaging of 3D tumor spheroid micropillar array for effector cell-mediated cytotoxicity including NK ADCC/drug combination. Uniform-sized 3D spheroids in the 330-micropillar array were used to perform high-throughput ADCC on three different cancer cell lines; MiaPaCa-2, MCF7 and MDA-MB-231, the latter a triple negative breast cancer cell line, in the presence and absence of two chemotherapeutic drugs, doxorubicin and paclitaxel. The ADCC screen was performed by spotting 250 nL onto polydopamine-coated micropillars including 2500 target cancer cells per spot. The cells were cultured for 3 days and then treated with NK92-CD16 cells. […] As a control, one block of spots was reserved for exposure of target cells with both antibody and the drugs but without NK92-CD16 cells. The micropillar/microwell sandwich platform was incubated for 24 h upside-down to allow for target cell killing on culture day 3. The next day, the chips were then washed, stained with Hoechst 33342, Calcein-AM and Propidium Iodide, and imaged using the ASFA™ scanner.
(§4) There was interest in whether MDA-MB-231, which is a triple negative breast cancer cell line having reduced expression of estrogen receptor (ER), progesterone receptor and HER252, was susceptible to cell death upon combination exposure of paclitaxel, Atezolizumab and NK92-CD16 cells. Triple negative breast cancers are particularly aggressive to treat due to very low expression levels of ER, PR and HER253. To test this, the three target cancer cell lines were spotted onto the 330-micropillar platform to generate the corresponding 3D spheroids. […] The 3D spheroids on the micropillar chip were incubated for 24 h, and then stained and imaged.
3D experiments on 330-micropillar/microwell sandwich system. Polystyrene 330 micropillar chips (MBD Korea Co., South Korea) were coated with polydopamine, washed and dried until further use. The 330 well chips were UV-treated using a 96 W transilluminator (Syngene GVM-30) for 4 h to enhance surface hydrophilicity. Cancer cells were detached as described previously and mixed with high concentration growth factor-reduced Matrigel to obtain a final cell concentration of 1×10^7 cells/mL. Then, 250 nL of the Matrigel-cell mixture was spotted using the ASFA™ spotter onto the polydopamine coated 330 micropillar chips. The chips were incubated face down in a humidity chamber at 37° C. for 15 min to allow for gelation and then they were sandwiched with the corresponding 330 microwell chip including 3.6 μL of fresh medium per well. The chips were cultured for a period of 3 days prior to NK cell exposure. The cell growth medium on the chip was exchanged every 2 days. For cytotoxicity experiments, where the NK92-CD16 ratio was varied, 25 different conditions were tested (see Table 1 below), including a dead control (via addition of saponin).
as §1
Unconjugated anti-HER2 antibody was used for experiments on 330 micropillar/microwell chips. […] The micropillar chip with target cells was then stamped onto the 330 microwell chip and incubated upside down for 24 h. […] The chips were subsequently washed in DPBS and imaged using an ASFA™ Cell Scanner (MBD Korea Co., South Korea) and quantitatively analyzed using cell analyzer software within the imaging system. […]

For the next data set, the system named is MCF7 spheroids. The data set is classed as cell-based. The settings on record: for target cell cytotoxicity of combination: combination of NK92-CD16 at E:T 10:1, Trastuzumab and drug (3.5 nM doxorubicin, p<0.01; 7.0 nM paclitaxel, p<0.05). The method, then: as §3, §4
3D experiments on 330-micropillar/microwell sandwich system. Polystyrene 330 micropillar chips (MBD Korea Co., South Korea) were coated with polydopamine, washed and dried until further use. The 330 well chips were UV-treated using a 96 W transilluminator (Syngene GVM-30) for 4 h to enhance surface hydrophilicity. Cancer cells were detached as described previously and mixed with high concentration growth factor-reduced Matrigel to obtain a final cell concentration of 1×10^7 cells/mL. Then, 250 nL of the Matrigel-cell mixture was spotted using the ASFA™ spotter onto the polydopamine coated 330 micropillar chips. […]
as §1, §2

Data set [1] concerns three target cancer cell lines (3D spheroids). The data set can be described thus: cells. Particulars: 24 h, read-out: EC50 (paclitaxel-induced cytotoxicity).
Excerpt: as §4
3D experiments on 330-micropillar/microwell sandwich system. Polystyrene 330 micropillar chips (MBD Korea Co., South Korea) were coated with polydopamine, washed and dried until further use. […]
as §1, §2

Setting [2] is: paclitaxel alone, spheroid culture.

Consider Atezolizumab, for which the inducing cytotoxicity result with MiaPaCa-2 spheroids is recorded as “effective in inducing cytotoxicity”.
As for `COc1cccc2c1C(=O)c1c(O)c3c(c(O)c1C2=O)C[C@@](O)(C(=O)CO)C[C@@H]3O[C@H]1C[C@H](N)[C@H](O)[C@H](C)O1` [doxorubicin], the “target cell cytotoxicity of combination” value in the data set on MDA-MB-231 spheroids (24 h) and in the data set with MCF7 spheroids (24 h) was “significantly more effective” each time.
With `CC(=O)O[C@H]1C(=O)[C@@]2(C)[C@H]([C@H](OC(=O)c3ccccc3)[C@]3(O)C[C@H](OC(=O)[C@H](O)[C@@H](NC(=O)c4ccccc4)c4ccccc4)C(C)=C1C3(C)C)[C@]1(OC(C)=O)CO[C@@H]1C[C@@H]2O` [paclitaxel], the EC50 (usually the midpoint of the concentration-response curve) in data set [1] was > 500 µM. Also, the “target cell cytotoxicity of combination” value in the data set on MDA-MB-231 spheroids (24 h) and with MCF7 spheroids (24 h) was “significantly more effective” each time. Moreover, the “effectiveness as a cytotoxic agent” value in the data set with MDA-MB-231 spheroids (setting [2]) and in the data set with MCF7 spheroids (setting [2]) was “poorly effective” in each case. Moreover, the “fold lower EC50 value for paclitaxel” value in the data set on MDA-MB-231 spheroids (paclitaxel in the presence of Atezolizumab 2.5 μg/mL along with NK92-CD16 (5:1), 24 h) is on record as “approximately 43 fold”; in the data set on MCF7 spheroids (paclitaxel with Trastuzumab 2.5 μg/mL and NK92-CD16 (5:1) vs absence of antibody and effector cells, 24 h), “approximately 1.8 fold”. For the same molecule, the “cytotoxic effectiveness of condition” value in the data set on MDA-MB-231 spheroids (paclitaxel in the presence of both Trastuzumab 2.5 μg/mL and NK92-CD16 (5:1), 24 h) is “did not prove to be effective”.
